According to US20240425502A1, “BICYCLIC HETEROAROMATIC COMPOUNDS AND THEIR USE AS PEST CONTROL AGENTS” (PI INDUSTRIES LTD., priority 2021, published 2024):

Legend:
Type in all cases: in vivo
Nilaparvata lugens = Nilaparvata lugens seedling dip test (paddy seedlings, third instar nymphs); conditions: 72 h after release, dead and moribund combined, compared to untreated control, read-out: percent mortality
Bemisia tabaci = Bemisia tabaci leaf dip test (brinjal leaves, whitefly adults); conditions: foliar, 72 h after release, dead and moribund combined, compared to untreated control, read-out: percent mortality
Protocol: The leaf dip method was used for testing, wherein the required quantity of the compound was weighed and dissolved in a tube containing a solvent solution. The tube was put on a vortex at 2000 rpm for 90 min for proper mixing and then the mixture was diluted with a 0.01% Triton-X solution to the desired test concentration. Brinjal leaves were dipped in the compound solution for 10 seconds, shade dried for 20 min and then placed, with the abaxial side of the leaf up, on 4 ml of a 1% agar-agar solution in respective container caps. Known numbers of freshly emerged whitefly adults were collected, using a modified aspirator, and released into a perforated container in which the cap containing the treated leaf was placed. The containers were kept in a plant growth chamber at a temperature of 25° C. and a relative humidity of 70%. Observations on dead, moribund and alive adults were recorded 72 h after the release. Percent mortality was calculated by combining dead and moribund adults and comparing the result to the one of the untreated control. The compounds 32 53 58 79 80 81 82 84 87 88 89 94 95 96 101 102 103 104 105 106 107 108 109 112 113 114 115 116 117 118 119 120 123 124 125 126 127 130 135 138 139 140 144 145 147 150 154 156 158 159 164 167 168 169 170 171 188 189 191 198 199 200 201 202 206 207 208 209 210 213 216 223 224 225 227 228 231 232 233 234 235 236 238 242 243 244 246 and 247 recorded≥70 percent mortality @ 300 PPM.

Myzus persicae = Myzus persicae leaf dip test (capsicum leaves, third instar nymphs); conditions: foliar, 72 h after release, dead and moribund combined, compared to untreated control, read-out: percent mortality

Measured: mortality at 300 ppm

O=c1nc2n(Cc3ccc(Cl)nc3)cccc-2c(=O)n1-c1cc(Cl)cc(C(F)(F)F)c1 [Compound 109, 3-(3-chloro-5-(trifluoromethyl)phenyl)-8-((6-chloropyridin-3-yl)methyl)pyrido[2,3-d]pyrimidine-2,4(3H,8H)-dione]
≥ 70%: all assays above

O=c1nc2n(Cc3cnc(Cl)nc3)cccc-2c(=O)n1-c1ccc(F)cc1 [Compound 117, 8-((2-chloropyrimidin-5-yl)methyl)-3-(4-fluorophenyl)pyrido[2,3-d]pyrimidine-2,4(3H,8H)-dione]
≥ 70%: all assays above

O=c1nc2n(Cc3cnc(Cl)nc3)cccc-2c(=O)n1-c1cccc(F)c1 [Compound 118, 8-((2-chloropyrimidin-5-yl)methyl)-3-(3-fluorophenyl)pyrido[2,3-d]pyrimidine-2,4(3H,8H)-dione]
≥ 70%: all assays above

O=c1nc2n(Cc3cnc(Cl)nc3)cccc-2c(=O)n1-c1ccc(F)c(F)c1 [Compound 120, 8-((2-chloropyrimidin-5-yl)methyl)-3-(3,4-difluorophenyl)pyrido[2,3-d]pyrimidine-2,4(3H,8H)-dione]
≥ 70%: all assays above

O=c1nc2n(Cc3ccc(Cl)nc3)cccc-2c(=O)n1-c1cccc(OC(F)(F)F)c1 [Compound 123, 8-((6-chloropyridin-3-yl)methyl)-3-(3-(trifluoromethoxy)phenyl)pyrido[2,3-d]pyrimidine-2,4(3H,8H)-dione]
≥ 70%: all assays above

O=c1nc2n(Cc3cnc(Cl)nc3)cccc-2c(=O)n1-c1cc(F)cc(F)c1 [Compound 140, 8-((2-chloropyrimidin-5-yl)methyl)-3-(3,5-difluorophenyl)pyrido[2,3-d]pyrimidine-2,4(3H,8H)-dione]
≥ 70%: all assays above

O=c1nc2n(Cc3cnc(Cl)s3)cccc-2c(=O)n1-c1cccc(OC(F)(F)F)c1 [Compound 150, 8-((2-chlorothiazol-5-yl)methyl)-3-(3-(trifluoromethoxy)phenyl)pyrido[2,3-d]pyrimidine-2,4(3H,8H)-dione]
≥ 70%: all assays above

O=c1nc2n(Cc3cnc(Cl)nc3)cccc-2c(=O)n1-c1ccc(F)c(Cl)c1 [Compound 154, 3-(3-chloro-4-fluorophenyl)-8-((2-chloropyrimidin-5-yl)methyl)pyrido[2,3-d]pyrimidine-2,4(3H,8H)-dione]
≥ 70%: all assays above

O=c1nc2n(Cc3cnc(Cl)nc3)cccc-2c(=O)n1-c1ccc(Br)cc1 [Compound 159, 3-(4-bromophenyl)-8-((2-chloropyrimidin-5-yl)methyl)pyrido[2,3-d]pyrimidine-2,4(3H,8H)-dione]
≥ 70%: all assays above

O=c1nc2n(Cc3cnc(Cl)nc3)cccc-2c(=O)n1-c1ccc2c(c1)OC(F)(F)O2 [Compound 198, 8-((2-chloropyrimidin-5-yl)methyl)-3-(2,2-difluorobenzo[d][1,3]dioxol-5-yl)pyrido[2,3-d]pyrimidine-2,4(3H,8H)-dione]
≥ 70%: all assays above
